# Article PMC11288129, “Diversely evolved xibalbin variants from remipede venom inhibit potassium channels and activate PKA-II and Erk1/2 signaling” (BMC Biology, 2024)
# Positions of bridges follow the written chain, without caps; N, C: chain ends. No end group written: not given here.
# Test system: THP-1 cell adhesion to HMECs
# Experiment: Adhesion of THP-1 leukocytes onto TNF-activated endothelial cells
# Type: cell-based, human
# Conditions: 25 µg/ml
# Procedure: Nitric oxide has a complex and diverse role in pain modulation. […] Finally, we analyzed the effects of xibalbins on the leukocyte adhesion to the vascular endothelium, which is a critical step in the inflammatory response of inflamed tissues. Xibalbins were analyzed for their ability to alter the adhesion of human monocytic (THP-1) cells onto a TNF-activated endothelial cell monolayer (Additional File 5: Figure S4). […] All individual values for these experiments are given in Additional File 8: Table S3.
# Supplementary file 12915_2024_1955_MOESM5_ESM.jpg: Additional file 5: Figure S4. Effects of xibalbins on cytotoxicity in RAW264.7 macrophages and adhesion of leukocytes onto the vascular endothelium. (i) For the viability assay, RAW264.7 cells were treated with 25 μg/ml concentrations of xibalbins for 24 h. Cells were incubated with WST-8 and the formed formazan was detected by absorbance measurements. (ii) For the proliferation assay, HMEC-1 cells were grown in low density and treated after 24 h with the indicated peptide for 72 h. Cells were stained with crystal violet solution. The amount of DNA-bound crystal violet was detected by absorbance measurements. […] The adhesion of leukocytes onto endothelial cells was quantified by fluorescence measurements using a Tecan Infinite F200 Pro microplate reader (Tecan, Männedorf, Switzerland) (excitation: 485 nm, emission: 535 nm). […]
sequence,measurement,value
"KRSCIRRFGRCDHRPNDCCYNSSCRCNLWGSNCRCQRMGLFQKWGK (disulfide 4-19, 11-24, 18-35, 26-33) [xib13]",Prevention of Leukocyte Adh. on HMEC-1,106.6
